Test results taken from patent US11497212B2, “Substituted thiophenyl uracils, salts thereof and the use thereof as herbicidal agents” (Syngenta Crop Protection AG, priority 2017, dated 2022).

What follows are molecules tested on Abutilon theophrasti (assay: Herbicidal action post-emergence (greenhouse pot trial)). Conditions: application rate 20 g/ha, scored visually after about 3 weeks vs untreated controls.
Type: in vivo
Procedure: (§1) Seeds of mono- and dicotyledonous weed plants and crop plants are laid out in sandy loam soil in plastic or wood-fiber pots, covered with earth and grown under controlled growth conditions in a greenhouse. 2 to 3 weeks after sowing, the trial plants are treated at the one-leaf stage. The compounds of the invention formulated in the form of wettable powders (WP) or emulsion concentrates (EC) were then sprayed onto the green parts of the plant as an aqueous suspension or emulsion with addition of 0.5% additive at a water application rate equivalent to 600 L/ha. After the trial plants had stood for about 3 weeks in the greenhouse, under optimal growth conditions, the effect of the preparations was scored visually by comparison with untreated controls. For example, 100% efficacy=plants have died, 0% efficacy=like control plants. Tables A1 to A15 below show the efficacies of selected compounds of the general formula (I) according to tables I.1 to I.60 on various harmful plants and an application rate corresponding to 80 g/ha or lower that were obtained by the aforementioned trial method.

SMILES | Abutilon theophrasti (Efficacy in %) [%]
CC(Sc1cc(-n2c(=O)cc(C(F)(F)F)n(C)c2=O)c(F)cc1Cl)C(=O)OCCOCc1ccccc1 (centres unmarked) [I.1-6] | 100
CC(Sc1cc(-n2c(=O)cc(C(F)(F)F)n(C)c2=O)c(F)cc1Cl)C(=O)OCCOC(F)(F)F (centres unmarked) [I.1-41] | 100
CCC(Sc1cc(-n2c(=O)c(C)c(C(F)(F)F)n(C)c2=O)c(F)cc1Cl)C(=O)NCC1CCCO1 (centres unmarked) [I.12-221] | 100
Cn1c(C(F)(F)F)cc(=O)n(-c2cc(SCC(C)(C)C(=O)OC3CCOCC3)c(Cl)cc2F)c1=O [I.48-127] | 100

The molecules below were run on Amaranthus retroflexus in the same assay as above. Conditions: application rate 20 g/ha, scored visually after about 3 weeks vs untreated controls.
Type: in vivo
Procedure: as §1

SMILES | Amaranthus retroflexus (Efficacy in %) [%]
CC(Sc1cc(-n2c(=O)cc(C(F)(F)F)n(C)c2=O)c(F)cc1Cl)C(=O)OCCOCc1ccccc1 (centres unmarked) [I.1-6] | 100
CC(Sc1cc(-n2c(=O)cc(C(F)(F)F)n(C)c2=O)c(F)cc1Cl)C(=O)OCCOC(F)(F)F (centres unmarked) [I.1-41] | 100
CCC(Sc1cc(-n2c(=O)c(C)c(C(F)(F)F)n(C)c2=O)c(F)cc1Cl)C(=O)NCC1CCCO1 (centres unmarked) [I.12-221] | 100
Cn1c(C(F)(F)F)cc(=O)n(-c2cc(SCC(C)(C)C(=O)OC3CCOCC3)c(Cl)cc2F)c1=O [I.48-127] | 100

These molecules were tested on Digitaria sanguinalis in the same assay as above. Conditions: application rate 20 g/ha.
Type: in vivo
Procedure: as §1

SMILES | Digitaria sanguinalis (Efficacy in %) [%]
CC(Sc1cc(-n2c(=O)cc(C(F)(F)F)n(C)c2=O)c(F)cc1Cl)C(=O)OCCOCc1ccccc1 (centres unmarked) [I.1-6] | 100
CC(Sc1cc(-n2c(=O)cc(C(F)(F)F)n(C)c2=O)c(F)cc1Cl)C(=O)OCCOC(F)(F)F (centres unmarked) [I.1-41] | 100

These molecules were tested on Echinochloa crus-galli in the same assay as above. Conditions: application rate 20 g/ha, scored visually after about 3 weeks vs untreated controls.
Type: in vivo
Procedure: as §1

SMILES | Echinochloa crus-galli (Efficacy in %) [%]
CC(Sc1cc(-n2c(=O)cc(C(F)(F)F)n(C)c2=O)c(F)cc1Cl)C(=O)OCCOCc1ccccc1 (centres unmarked) [I.1-6] | 90
CC(Sc1cc(-n2c(=O)cc(C(F)(F)F)n(C)c2=O)c(F)cc1Cl)C(=O)OCCOC(F)(F)F (centres unmarked) [I.1-41] | 100

What follows are molecules tested on Matricaria inodora in the same assay as above. Conditions: application rate 20 g/ha, scored visually after about 3 weeks vs untreated controls.
Type: in vivo
Procedure: as §1

SMILES | Matricaria inodora (Efficacy in %) [%]
CC(Sc1cc(-n2c(=O)cc(C(F)(F)F)n(C)c2=O)c(F)cc1Cl)C(=O)OCCOCc1ccccc1 (centres unmarked) [I.1-6] | 100
CC(Sc1cc(-n2c(=O)cc(C(F)(F)F)n(C)c2=O)c(F)cc1Cl)C(=O)OCCOC(F)(F)F (centres unmarked) [I.1-41] | 90
CCC(Sc1cc(-n2c(=O)c(C)c(C(F)(F)F)n(C)c2=O)c(F)cc1Cl)C(=O)NCC1CCCO1 (centres unmarked) [I.12-221] | 100
Cn1c(C(F)(F)F)cc(=O)n(-c2cc(SCC(C)(C)C(=O)OC3CCOCC3)c(Cl)cc2F)c1=O [I.48-127] | 90

These molecules were tested on Pharbitis purpurea in the same assay as above. Conditions: application rate 20 g/ha.
Type: in vivo
Procedure: as §1

SMILES | Pharbitis purpurea (Efficacy in %) [%]
CC(Sc1cc(-n2c(=O)cc(C(F)(F)F)n(C)c2=O)c(F)cc1Cl)C(=O)OCCOCc1ccccc1 (centres unmarked) [I.1-6] | 100
CC(Sc1cc(-n2c(=O)cc(C(F)(F)F)n(C)c2=O)c(F)cc1Cl)C(=O)OCCOC(F)(F)F (centres unmarked) [I.1-41] | 100
Cn1c(C(F)(F)F)cc(=O)n(-c2cc(SCC(C)(C)C(=O)OC3CCOCC3)c(Cl)cc2F)c1=O [I.48-127] | 90

The molecules below were run on Polygonum convolvulus in the same assay as above. Conditions: application rate 20 g/ha, scored visually after about 3 weeks vs untreated controls.
Type: in vivo
Procedure: as §1

SMILES | Polygonum convolvulus (Efficacy in %) [%]
CC(Sc1cc(-n2c(=O)cc(C(F)(F)F)n(C)c2=O)c(F)cc1Cl)C(=O)OCCOCc1ccccc1 (centres unmarked) [I.1-6] | 100
CC(Sc1cc(-n2c(=O)cc(C(F)(F)F)n(C)c2=O)c(F)cc1Cl)C(=O)OCCOC(F)(F)F (centres unmarked) [I.1-41] | 100
CCC(Sc1cc(-n2c(=O)c(C)c(C(F)(F)F)n(C)c2=O)c(F)cc1Cl)C(=O)NCC1CCCO1 (centres unmarked) [I.12-221] | 100
Cn1c(C(F)(F)F)cc(=O)n(-c2cc(SCC(C)(C)C(=O)OC3CCOCC3)c(Cl)cc2F)c1=O [I.48-127] | 90

What follows are molecules tested on Setaria viridis in the same assay as above. Conditions: application rate 20 g/ha, scored visually after about 3 weeks vs untreated controls.
Type: in vivo
Procedure: as §1

SMILES | Setaria viridis (Efficacy in %) [%]
CC(Sc1cc(-n2c(=O)cc(C(F)(F)F)n(C)c2=O)c(F)cc1Cl)C(=O)OCCOCc1ccccc1 (centres unmarked) [I.1-6] | 100
CC(Sc1cc(-n2c(=O)cc(C(F)(F)F)n(C)c2=O)c(F)cc1Cl)C(=O)OCCOC(F)(F)F (centres unmarked) [I.1-41] | 100

The molecules below were run on Stellaria media in the same assay as above. Conditions: application rate 20 g/ha, scored visually after about 3 weeks vs untreated controls.
Type: in vivo
Procedure: as §1

SMILES | Stellaria media (Efficacy in %) [%]
CC(Sc1cc(-n2c(=O)cc(C(F)(F)F)n(C)c2=O)c(F)cc1Cl)C(=O)OCCOCc1ccccc1 (centres unmarked) [I.1-6] | 90
CCC(Sc1cc(-n2c(=O)c(C)c(C(F)(F)F)n(C)c2=O)c(F)cc1Cl)C(=O)NCC1CCCO1 (centres unmarked) [I.12-221] | 80
Cn1c(C(F)(F)F)cc(=O)n(-c2cc(SCC(C)(C)C(=O)OC3CCOCC3)c(Cl)cc2F)c1=O [I.48-127] | 100

The molecules below were run on Veronica persica in the same assay as above. Conditions: application rate 20 g/ha.
Type: in vivo
Procedure: as §1

SMILES | Veronica persica (Efficacy in %) [%]
CC(Sc1cc(-n2c(=O)cc(C(F)(F)F)n(C)c2=O)c(F)cc1Cl)C(=O)OCCOCc1ccccc1 (centres unmarked) [I.1-6] | 100
CC(Sc1cc(-n2c(=O)cc(C(F)(F)F)n(C)c2=O)c(F)cc1Cl)C(=O)OCCOC(F)(F)F (centres unmarked) [I.1-41] | 100
CCC(Sc1cc(-n2c(=O)c(C)c(C(F)(F)F)n(C)c2=O)c(F)cc1Cl)C(=O)NCC1CCCO1 (centres unmarked) [I.12-221] | 100
Cn1c(C(F)(F)F)cc(=O)n(-c2cc(SCC(C)(C)C(=O)OC3CCOCC3)c(Cl)cc2F)c1=O [I.48-127] | 100

What follows are molecules tested on Viola tricolor in the same assay as above. Conditions: application rate 20 g/ha.
Type: in vivo
Procedure: as §1

SMILES | Viola tricolor (Efficacy in %) [%]
CC(Sc1cc(-n2c(=O)cc(C(F)(F)F)n(C)c2=O)c(F)cc1Cl)C(=O)OCCOCc1ccccc1 (centres unmarked) [I.1-6] | 100
CC(Sc1cc(-n2c(=O)cc(C(F)(F)F)n(C)c2=O)c(F)cc1Cl)C(=O)OCCOC(F)(F)F (centres unmarked) [I.1-41] | 100
CCC(Sc1cc(-n2c(=O)c(C)c(C(F)(F)F)n(C)c2=O)c(F)cc1Cl)C(=O)NCC1CCCO1 (centres unmarked) [I.12-221] | 100
Cn1c(C(F)(F)F)cc(=O)n(-c2cc(SCC(C)(C)C(=O)OC3CCOCC3)c(Cl)cc2F)c1=O [I.48-127] | 100

The molecules below were run on Oryza sativa (assay: Crop compatibility post-emergence (greenhouse pot trial)). Conditions: application rate 5 g/ha.
Type: in vivo
Procedure: as §1, with “plants.” for “plants. Tables A1 to A15 below show the efficacies of selected compounds of the general formula (I) according to tables I.1 to I.60 on various harmful plants and an application rate corresponding to 80 g/ha or lower that were obtained by the aforementioned trial method.”
(§2) Crop plant compatibilities were also scored correspondingly.
(§3) The effects observed are reported here on selected crop plants by comparison with the untreated controls (values in %).

Oryza sativa (Efficacy in %) [%] | SMILES
0 | CC(Sc1cc(-n2c(=O)cc(C(F)(F)F)n(C)c2=O)c(F)cc1Cl)C(=O)OCCOCc1ccccc1 (centres unmarked) [I.1-6]

Same assay, conditions: application rate 20 g/ha

Oryza sativa (Efficacy in %) [%] | SMILES
20 | CCC(Sc1cc(-n2c(=O)c(C)c(C(F)(F)F)n(C)c2=O)c(F)cc1Cl)C(=O)NCC1CCCO1 (centres unmarked) [I.12-221]
0 | Cn1c(C(F)(F)F)cc(=O)n(-c2cc(SCC(C)(C)C(=O)OC3CCOCC3)c(Cl)cc2F)c1=O [I.48-127]

What follows are molecules tested on Triticum aestivum in the same assay as above. Conditions: application rate 20 g/ha.
Type: in vivo
Procedure: as §1, with “plants.” for “plants. Tables A1 to A15 below show the efficacies of selected compounds of the general formula (I) according to tables I.1 to I.60 on various harmful plants and an application rate corresponding to 80 g/ha or lower that were obtained by the aforementioned trial method.”
as §2, §3

Triticum aestivum (Efficacy in %) [%] | SMILES
20 | CC(Sc1cc(-n2c(=O)cc(C(F)(F)F)n(C)c2=O)c(F)cc1Cl)C(=O)OCCOC(F)(F)F (centres unmarked) [I.1-41]
20 | CCC(Sc1cc(-n2c(=O)c(C)c(C(F)(F)F)n(C)c2=O)c(F)cc1Cl)C(=O)NCC1CCCO1 (centres unmarked) [I.12-221]
10 | Cn1c(C(F)(F)F)cc(=O)n(-c2cc(SCC(C)(C)C(=O)OC3CCOCC3)c(Cl)cc2F)c1=O [I.48-127]

What follows are molecules tested on Zea mays in the same assay as above. Conditions: application rate 5 g/ha.
Type: in vivo
Procedure: as §1, with “plants.” for “plants. Tables A1 to A15 below show the efficacies of selected compounds of the general formula (I) according to tables I.1 to I.60 on various harmful plants and an application rate corresponding to 80 g/ha or lower that were obtained by the aforementioned trial method.”
as §2, §3

Zea mays (Efficacy in %) [%] | SMILES
0 | CCC(Sc1cc(-n2c(=O)c(C)c(C(F)(F)F)n(C)c2=O)c(F)cc1Cl)C(=O)NCC1CCCO1 (centres unmarked) [I.12-221]
20 | Cn1c(C(F)(F)F)cc(=O)n(-c2cc(SCC(C)(C)C(=O)OC3CCOCC3)c(Cl)cc2F)c1=O [I.48-127]
